Several values for one entry are separate records, joined by “and”; a condition that tells them apart may be missing. Equal entries are not always repeated.
Test: molar heat capacity at saturation pressure
Conditions: Small (less than 1 g) adiabatic calorimetry

ON=C1CCCCC1 [cyclohexanone oxime]
Conditions	molar heat capacity
303.01 K, Crystal 1	192.59 J/K/mol
303.67 K, Crystal 1	191.89 J/K/mol
303.76 K, Crystal 1	191.84 J/K/mol
304.57 K, Crystal 1	191.66 J/K/mol
305.34 K, Crystal 1	191.58 J/K/mol
305.36 K, Crystal 1	191.49 J/K/mol
305.83 K, Crystal 1	191.51 J/K/mol
306.14 K, Crystal 1	191.69 J/K/mol
306.91 K, Crystal 1	191.81 J/K/mol
307.05 K, Crystal 1	191.78 J/K/mol
307.6 K, Crystal 1	191.89 J/K/mol
307.71 K, Crystal 1	191.96 J/K/mol
308.49 K, Crystal 1	192.2 J/K/mol
308.74 K, Crystal 1	192.41 J/K/mol
309.27 K, Crystal 1	192.53 J/K/mol
309.38 K, Crystal 1	192.47 J/K/mol
310.07 K, Crystal 1	192.72 J/K/mol
310.43 K, Crystal 1	193 J/K/mol
310.95 K, Crystal 1	193.22 J/K/mol
311.16 K, Crystal 1	193.22 J/K/mol
311.68 K, Crystal 1	193.28 J/K/mol
312.22 K, Crystal 1	193.77 J/K/mol
312.72 K, Crystal 1	193.93 J/K/mol
312.94 K, Crystal 1	194.04 J/K/mol
313.36 K, Crystal 1	194.05 J/K/mol
314.11 K, Crystal 1	194.56 J/K/mol
314.48 K, Crystal 1	194.7 J/K/mol
314.72 K, Crystal 1	194.7 J/K/mol
315.03 K, Crystal 1	194.86 J/K/mol
316 K, Crystal 1	195.45 J/K/mol
316.25 K, Crystal 1	195.55 J/K/mol
316.49 K, Crystal 1	195.61 J/K/mol
316.71 K, Crystal 1	195.66 J/K/mol
317.89 K, Crystal 1	196.42 J/K/mol
318.01 K, Crystal 1	196.38 J/K/mol
318.27 K, Crystal 1	196.48 J/K/mol
318.38 K, Crystal 1	196.46 J/K/mol
319.77 K, Crystal 1	197.45 J/K/mol and 197.36 J/K/mol
320.04 K, Crystal 1	197.43 J/K/mol
320.11 K, Crystal 1	197.4 J/K/mol
321.54 K, Crystal 1	198.27 J/K/mol
321.81 K, Crystal 1	198.43 J/K/mol
321.98 K, Crystal 1	198.37 J/K/mol
323.3 K, Crystal 1	199.26 J/K/mol
323.58 K, Crystal 1	199.58 J/K/mol
323.8 K, Crystal 1	199.44 J/K/mol
325.05 K, Crystal 1	200.28 J/K/mol
325.35 K, Crystal 1	200.52 J/K/mol
325.62 K, Crystal 1	200.47 J/K/mol
326.81 K, Crystal 1	201.27 J/K/mol
327.11 K, Crystal 1	201.48 J/K/mol
327.43 K, Crystal 1	201.55 J/K/mol
328.56 K, Crystal 1	202.22 J/K/mol
328.87 K, Crystal 1	202.64 J/K/mol
329.24 K, Crystal 1	202.56 J/K/mol
330.32 K, Crystal 1	203.27 J/K/mol
330.63 K, Crystal 1	203.71 J/K/mol
331.06 K, Crystal 1	203.58 J/K/mol
331.23 K, Crystal 1	203.73 J/K/mol
332.4 K, Crystal 1	204.63 J/K/mol
332.88 K, Crystal 1	204.71 J/K/mol
332.98 K, Crystal 1	204.75 J/K/mol
334.15 K, Crystal 1	205.6 J/K/mol
334.7 K, Crystal 1	205.74 J/K/mol
334.74 K, Crystal 1	205.77 J/K/mol
335.91 K, Crystal 1	206.77 J/K/mol
336.49 K, Crystal 1	206.75 J/K/mol
336.52 K, Crystal 1	206.77 J/K/mol
337.67 K, Crystal 1	207.8 J/K/mol
338.25 K, Crystal 1	207.78 J/K/mol
338.35 K, Crystal 1	207.86 J/K/mol
339.42 K, Crystal 1	208.77 J/K/mol
339.99 K, Crystal 1	208.85 J/K/mol
340.17 K, Crystal 1	209 J/K/mol
341.17 K, Crystal 1	209.83 J/K/mol
341.74 K, Crystal 1	209.95 J/K/mol
341.99 K, Crystal 1	210.15 J/K/mol
342.93 K, Crystal 1	210.86 J/K/mol
343.49 K, Crystal 1	210.94 J/K/mol
343.81 K, Crystal 1	211.29 J/K/mol
344.68 K, Crystal 1	212.1 J/K/mol
345.25 K, Crystal 1	212.02 J/K/mol
345.63 K, Crystal 1	212.36 J/K/mol
346.43 K, Crystal 1	213.18 J/K/mol
346.99 K, Crystal 1	213.12 J/K/mol
347.45 K, Crystal 1	213.43 J/K/mol
348.18 K, Crystal 1	214.14 J/K/mol
348.74 K, Crystal 1	214.13 J/K/mol
349.27 K, Crystal 1	214.58 J/K/mol
349.93 K, Crystal 1	215.3 J/K/mol
350.48 K, Crystal 1	215.24 J/K/mol
351.09 K, Crystal 1	215.74 J/K/mol
351.67 K, Crystal 1	216.38 J/K/mol
352.41 K, Crystal 1	216.96 J/K/mol
352.91 K, Crystal 1	217.26 J/K/mol
353.42 K, Crystal 1	217.49 J/K/mol
354.55 K, Crystal 1	219.52 J/K/mol
354.73 K, Crystal 1	219 J/K/mol
355.16 K, Crystal 1	218.64 J/K/mol
363.8 K, Liquid	272.42 J/K/mol
364.48 K, Liquid	272.66 J/K/mol
364.59 K, Liquid	273 J/K/mol
365.34 K, Liquid	273.22 J/K/mol
365.92 K, Liquid	273.48 J/K/mol
366.16 K, Liquid	273.91 J/K/mol
366.88 K, Liquid	274.16 J/K/mol
367.36 K, Liquid	274.33 J/K/mol
367.52 K, Liquid	274.57 J/K/mol
367.73 K, Liquid	274.96 J/K/mol
368.42 K, Liquid	275.12 J/K/mol
368.79 K, Liquid	275.25 J/K/mol
368.96 K, Liquid	275.31 J/K/mol

Reference: the NIST ThermoML archive (doi:10.1021/je700546r)
